Experimental data reported in patent US4156730A, “Pharmaceutically active compounds, preparation thereof, intermediates useful in such preparation and compositions containing the compounds” (Beecham Group Limited, priority 1976, dated 1979).

System: 5-hydroxytryptamine induced bronchoconstriction
Test: inhibition of 5-hydroxytryptamine induced bronchoconstriction (Konzett-Rossler preparation)
Assay type: in vivo
Conditions: Cavia porcellus, iv; intravenously; anaesthetised, artificially respired guinea pig; read-out: IC50 for inhibition of bronchoconstriction
Description: The compounds were examined for their ability to inhibit 5-hydroxytryptamine induced bronchoconstriction in the anaesthetised, artifically respired guinea pig (Konzett-Rossler preparation - ref: H. Konzett and R. Rossler, 1940, Arch. exp. Path. Pharmak., 195, 71).

SMILES: CCCCC(C)(O)CCCCN1C(=O)CC(=O)C1CCCCCCC(=O)OC (stereo not shown) [Compound 30, 2-(6'-Methoxycarbonyl-n-hexyl)-1-(5"-hydroxy-5"-methyl-n-nonyl)-pyrrolidin-3,5-dione]
- ED50: 0.012 mg/kg
